Experimental data: patent US20210317092A1 (BAYER PHARMA AKTIENGESELLSCHAFT, priority 2016, published 2021)

Molecular target: T1, human Bradykinin B1 receptor (Homo sapiens, UniProt P46663)
T1 construct: host or cells: CHO-K1
T1 sequence (P46663 1-353): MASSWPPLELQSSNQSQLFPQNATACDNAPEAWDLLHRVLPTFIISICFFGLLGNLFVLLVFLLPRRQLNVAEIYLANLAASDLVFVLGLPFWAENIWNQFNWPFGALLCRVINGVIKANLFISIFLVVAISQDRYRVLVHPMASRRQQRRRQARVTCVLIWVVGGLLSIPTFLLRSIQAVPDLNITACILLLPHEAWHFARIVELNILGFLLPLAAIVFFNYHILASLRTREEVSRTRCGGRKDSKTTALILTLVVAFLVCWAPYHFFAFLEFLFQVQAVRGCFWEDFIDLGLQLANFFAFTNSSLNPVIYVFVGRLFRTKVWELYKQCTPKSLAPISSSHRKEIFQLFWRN
Experiment: Calcium flux Assay (FLIPR) with recombinant CHO-K1 cells expressing human Bradykinin B1 receptor, in presence (hB1 IC50) or absence (hB1 free IC50) of 0.1% BSA
Format: cell-based
Details: in absence of 0.1% BSA, read-out: hB1 free IC50

| IC50 | SMILES |
| --- | --- |
| 16 nM | Cc1cc(-c2c(F)cc(NC(=O)C3(c4cccc(Cl)c4)CC3)cc2-c2nnn[nH]2)ccn1 [Example 246, 1-(3-chlorophenyl)-N-[3-fluoro-4-(2-methylpyridin-4-yl)-5-(1H-tetrazol-5-yl)phenyl] cyclopropane carboxamide] |
| 227 nM | O=C(Nc1ccc(-c2cnc(C(F)(F)F)nc2)c(-c2nnn[nH]2)c1)C1(c2ccc(Cl)c(F)c2)CC1 [Example 251, 1-(4-chloro-3-fluorophenyl)-N-{3-(1H-tetrazol-5-yl)-4-[2-(trifluoromethyl)pyrimidin-5-yl]phenyl} cyclopropane-carboxamide] |
| 92.8 nM | O=C(Nc1ccc(-c2cnc(C(F)(F)F)nc2)c(-c2nnn[nH]2)c1)C1(c2ccc(Cl)cc2F)CC1 [Example 252, 1-(4-chloro-2-fluorophenyl)-N-{3-{1H-tetrazol-5-yl)-4-[2-(trifluoromethyl)pyrimidin-5-yl]phenyl} cyclopropane-carboxamide] |
| 309 nM | CCOc1ccc(-c2ccc(NC(=O)C3(c4cc(F)ccc4C)CC3)cc2-c2nnn[nH]2)cn1 [Example 254, N-[4-(6-ethoxypyridin-3-yl)-3-(1H-tetrazol-5-yl)phenyl]-1-(5-fluoro-2-methylphenyl)cy-clopropanecar-boxamide] |
| 702 nM | COc1ccc(-c2ccc(NC(=O)C3(c4cc(F)ccc4C)CC3)cc2-c2nnn[nH]2)cc1OC [Example 255, N-[3′,4′-dimethoxy-2-(1H-tetrazol-5-yl)biphenyl-4-yl]-1-(5-fluoro-2-methylphenyl)cy-clopropanecar-boxamide] |
| 288 nM | CCOc1ccc(-c2ccc(NC(=O)C3(c4cccc(F)c4C)CC3)cc2-c2nnn[nH]2)cn1 [Example 256, N-[4-(6-ethoxypyridin-3-yl)-3-(1H-tetrazol-5-yl)phenyl]-1-(3-fluoro-2-methylphenyl)cy-clopropanecar-boxamide] |
| 2330 nM | COc1ccc(-c2cc(F)c(NC(=O)C3(c4ccc(Cl)cc4)CC3)cc2-c2nnn[nH]2)cc1OC [Example 264, 1-(4-Chlorophenyl)-N-[5-fluoro-3′,4′-dimethoxy-2-(1H-tetrazol-5-yl)biphenyl-4-yl]cyclopropane carboxamide] |
| 92 nM | O=C(Nc1ccc(-c2ccc(C(F)F)nc2)c(-c2nnn[nH]2)c1)C1(c2ccc(F)cc2)CC1 [Example 268, N-{4-[6-(difluoromethyl)pyridin-3-yl]-3-(1H-tetrazol-5-yl)phenyl}-1-(4-fluorophenyl)cy-cloproapnecarbox-amide] |
| 13.2 nM | O=C(Nc1ccc(-c2ccc(C(F)F)nc2)c(-c2nnn[nH]2)c1)C1(c2ccc(Cl)cc2)CC1 [Example 269, 1-(4-chlorophenyl)-N-{4-[6-(difluoromethyl)pyridin-3-yl]-3-(1H-tetrazol-5-yl)phenyl}cyclopro-panecarboxa-mide] |
| 17.4 nM | O=C(Nc1ccc(-c2ccc(C(F)F)nc2)c(-c2nnn[nH]2)c1)C1(c2ccc(C(F)(F)F)cc2)CC1 [Example 270, N-{4-[6-(difluoromethyl)pyridin-3-yl]-3-(1H-tetrazol-5-yl)phenyl}-1-[4-(trifluoromethyl)phenyl]cyclopro-panecarboxamide] |
| 6.09 nM | O=C(Nc1ccc(-c2ccc(C(F)F)nc2)c(-c2nnn[nH]2)c1)C1(c2ccc(OC(F)(F)F)cc2)CC1 [Example 271, N-{4-[6-(difluoromethyl)pyridin-3-yl]-3-(1H-tetrazol-5-yl)phenyl}-1-[4-(trifluoromethoxy)phenyl]cyclo-propanecarboxa-mide] |
| 4.72 nM | O=C(Nc1ccc(-c2ccc(C(F)F)nc2)c(-c2nnn[nH]2)c1)C1(c2ccc(Cl)c(F)c2)CC1 [Example 272, 1-(4-chloro-3-fluorophenyl)-N-{4-[6-(difluoromethyl)pyridin-3-yl]-3-(1H-tetrazol-5-yl)phenyl}cyclopro-panecarboxa-mide] |

Same assay, conditions: in presence of 0.1% BSA, read-out: hB1 IC50

| IC50 | SMILES |
| --- | --- |
| 88.9 nM | O=C(Nc1cc(-c2nnn[nH]2)c(-c2ccc(C(F)(F)F)nc2)cc1O)C1(c2cccc(Cl)c2F)CC1 [Example 225, 1-(3-chloro-2-fluorophenyl)-N-{2-hydroxy-5-(1H-tetrazol-5-yl)-4-[6-(trifluoromethyl)pyridin-3-yl]phenyl} cyclopropane-carboxamide] |
| 105 nM | O=C(Nc1cc(-c2nnn[nH]2)c(-c2ccc(C(F)(F)F)nc2)cc1O)C1(c2ccc(Cl)cc2)CC1 [Example 226, 1-(4-chlorophenyl)-N-{2-hydroxy-5-(1H-tetrazol-5-yl)-4-[6-(trifluoromethyl)pyridin-3-yl]phenyl} cyclopropane-carboxamide] |
| 88.2 nM | O=C(Nc1cc(-c2nnn[nH]2)c(-c2ccc(C(F)(F)F)nc2)cc1O)C1(c2ccc(F)cc2F)CC1 [Example 228, 1-(2,4-Difluorophenyl)-N-{2-hydroxy-5-(1H-tetrazol-5-yl)-4-[6-(trifluoromethyl)pyridin-3-yl]phenyl} cyclopropane-carboxamide] |
| 1280 nM | COc1ccc(-c2cc(F)c(NC(=O)C3(c4cc(Cl)ccc4F)CC3)cc2-c2nnn[nH]2)cc1 [Example 229, 1-(5-Chloro-2-fluorophenyl)-N-[5-fluoro-4′-methoxy-2-(1H-tetrazol-5-yl)biphenyl-4-yl]cyclopropane carboxamide] |
| 2100 nM | COc1ccc(-c2cc(F)c(NC(=O)C3(c4ccc(F)c(Cl)c4)CC3)cc2-c2nnn[nH]2)cc1C [Example 230, 1-(3-Chloro-4-fluorophenyl)-N-[5-fluoro-4′-methoxy-3′-methyl-2-(1H-tetrazol-5-yl)biphenyl-4-yl]cyclopropane-carboxamide] |
| 2200 nM | COc1ccc(-c2cc(F)c(NC(=O)C3(c4ccc(Cl)cc4F)CC3)cc2-c2nnn[nH]2)cc1C [Example 231, 1-(4-Chloro-2-fluorophenyl)-N-[5-fluoro-4′-methoxy-3′-methyl-2-(1H-tetrazol-5-yl)biphenyl-4-yl]cyclopropane carboxamide] |
| 53.6 nM | COc1ccc(-c2c(F)cc(NC(=O)C3(c4ccc(F)cc4F)CC3)cc2-c2nnn[nH]2)cc1OC [Example 235, 1-(2,4-Difluorophenyl)-N-[2-fluoro-3′,4′-dimethoxy-6-(1H-tetrazol-5-yl)biphenyl-4-yl]cyclopropane carboxamide] |
| 1760 nM | CCOc1ccc(-c2cc(C)c(NC(=O)C3(c4cccc(Cl)c4)CC3)cc2-c2nnn[nH]2)cc1OC [Example 249, 1-(3-Chlorophenyl)-N-[4′-ethoxy-3′-methoxy-5-methyl-2-(1H-tetrazol-5-yl)biphenyl-4-yl]cyclopropane carboxamide] |
| 240 nM | COc1ccc(-c2c(C)cc(NC(=O)C3(c4cccc(Cl)c4)CC3)cc2-c2nnn[nH]2)cc1OC [Example 250, 1-(3-Chlorophenyl)-N-[3′,4′-dimethoxy-2-methyl-6-(1H-tetrazol-5-yl)biphenyl-4-yl]cyclopropane carboxamide] |
| 245 nM | CCOc1ccc(-c2ccc(NC(=O)C3(c4cc(F)ccc4C)CC3)cc2-c2nnn[nH]2)cn1 [Example 254, N-[4-(6-ethoxypyridin-3-yl)-3-(1H-tetrazol-5-yl)phenyl]-1-(5-fluoro-2-methylphenyl)cy-clopropanecar-boxamide] |
| 452 nM | COc1ccc(-c2ccc(NC(=O)C3(c4cc(F)ccc4C)CC3)cc2-c2nnn[nH]2)cc1OC [Example 255, N-[3′,4′-dimethoxy-2-(1H-tetrazol-5-yl)biphenyl-4-yl]-1-(5-fluoro-2-methylphenyl)cy-clopropanecar-boxamide] |
| 274 nM | CCOc1ccc(-c2ccc(NC(=O)C3(c4cccc(F)c4C)CC3)cc2-c2nnn[nH]2)cn1 [Example 256, N-[4-(6-ethoxypyridin-3-yl)-3-(1H-tetrazol-5-yl)phenyl]-1-(3-fluoro-2-methylphenyl)cy-clopropanecar-boxamide] |
| 916 nM | COc1ccc(-c2ccc(NC(=O)C3(c4cccc(F)c4C)CC3)cc2-c2nnn[nH]2)cc1OC [Example 257, N-[3′,4′-dimethoxy-2-(1H-tetrazol-5-yl)biphenyl-4-yl]-1-(3-fluoro-2-methylphenyl)cy-clopropanecar-boxamide] |
| 72.3 nM | O=C(Nc1cc(-c2nnn[nH]2)c(-c2ccc(C(F)(F)F)nc2)cc1O)C1(c2cccc(Cl)c2)CC1 [Example 262, 1-(3-chlorophenyl)-N-{2-hydroxy-5-(1H-tetrazol-5-yl)-4-[6-(trifluoromethyl)pyridin-3-yl]phenyl}cyclopro-panecarboxa-mide] |
| 834 nM | COc1ccc(-c2cc(F)c(NC(=O)C3(c4ccc(Cl)cc4)CC3)cc2-c2nnn[nH]2)cc1OC [Example 264, 1-(4-Chlorophenyl)-N-[5-fluoro-3′,4′-dimethoxy-2-(1H-tetrazol-5-yl)biphenyl-4-yl]cyclopropane carboxamide] |
